Results as given in ChEMBL document CHEMBL1128061, “N-substituted glycines as replacements for proline in tripeptide aldehyde thrombin inhibitors” (Bioorg Med Chem Lett, 1995).
Where a SMILES comes first, the peptide text is derived from it. [ ]: non-standard residue; d: D form. dPip = O=C(O)[C@H]1CCCCN1

Experiments:
[1] = biological target: Prothrombin (Homo sapiens) (UniProt P00734); experiment: Association constant for thrombin
[2] = Ratio of association constant of thrombin and plasmin
[3] = Ratio of association constant of thrombin and tissue-type plasminogen activator
[4] = biological target: Thrombin & trypsin (Homo sapiens) (UniProt P00734+P07477+P07478+P35030); experiment: Ratio of association constant of thrombin and trypsin; type: protein assay

## N=C(N)NCCC[C@@H](C=O)NC(=O)[C@@H]1CCCN1C(=O)[C@H]1CCCCN1 (H-[dPip]-Pro-Arg-aldehyde)
[1]
  K ass: 200 L/µM
[2]
  Ratio: 220
[3]
  Ratio: 6700
[4]
  Ratio: 3.3

## N=C(N)NCCC[C@@H](C=O)NC(=O)CN(CCc1ccccc1)C(=O)[C@H]1CCCCN1
[1]
  K ass: 87 L/µM
[2]
  Ratio: 200
[3]
  Ratio: 14500
[4]
  Ratio: 32

## CN(CC(=O)N[C@H](C=O)CCCN=C(N)N)C(=O)[C@H]1CCCCN1
[1]
  K ass: 22 L/µM
[2]
  Ratio: 730
[3]
  Ratio: 5500
[4]
  Ratio: 24

## CCCN(CC(=O)N[C@H](C=O)CCCN=C(N)N)C(=O)[C@H]1CCCCN1
[1]
  K ass: 34 L/µM
[2]
  Ratio: 680
[3]
  Ratio: 8500
[4]
  Ratio: 14

## N=C(N)NCCC[C@@H](C=O)NC(=O)CN(CCCc1ccccc1)C(=O)[C@H]1CCCCN1
[1]
  K ass: 24 L/µM
[2]
  Ratio: 200
[3]
  Ratio: 4000
[4]
  Ratio: 4

## CC(C)N(CC(=O)N[C@H](C=O)CCCN=C(N)N)C(=O)[C@H]1CCCCN1
[1]
  K ass: 10 L/µM
[2]
  Ratio: 10000
[3]
  Ratio: 10000
[4]
  Ratio: 20

## N=C(N)NCCC[C@@H](C=O)NC(=O)CN(CCC1CCCCC1)C(=O)[C@H]1CCCCN1
[1]
  K ass: 5.4 L/µM
[2]
  Ratio: 16
[3]
  Ratio: 770
[4]
  Ratio: 0.9

## N=C(N)NCCC[C@@H](C=O)NC(=O)CN(Cc1ccccc1)C(=O)[C@H]1CCCCN1
[1]
  K ass: 10 L/µM
[2]
  Ratio: 77
[3]
  Ratio: 1000
[4]
  Ratio: 1

## CC(C)CN(CC(=O)N[C@H](C=O)CCCN=C(N)N)C(=O)[C@H]1CCCCN1
[1]
  K ass: 24 L/µM
[2]
  Ratio: 480
[3]
  Ratio: 24000
[4]
  Ratio: 15

## CC(C)CCN(CC(=O)N[C@H](C=O)CCCN=C(N)N)C(=O)[C@H]1CCCCN1
[1]
  K ass: 16 L/µM
[2]
  Ratio: 270
[3]
  Ratio: 4000
[4]
  Ratio: 2.7

## CCN(CC(=O)N[C@H](C=O)CCCN=C(N)N)C(=O)[C@H]1CCCCN1
[1]
  K ass: 33 L/µM
[2]
  Ratio: 3300
[3]
  Ratio: 6600
[4]
  Ratio: 25

## N=C(N)NCCC[C@@H](C=O)NC(=O)CN(C(=O)[C@H]1CCCCN1)c1ccccc1
[1]
  K ass: 16 L/µM
[2]
  Ratio: 400
[3]
  Ratio: 4000
[4]
  Ratio: 15
